{"source": "patent US12139520B2", "about": "(priority 2020, dated 2024)", "note": "Numbered stars: 1 amine (or outer) side, 2 acyl side, 3 side chain; on linkers, the order of the positions; unused ones are H or OH. Bridge positions count the residues as written; N and C are the ends. Square brackets hold non-standard residues; d marks the D form. Peptide text beside a SMILES is read from it. * marks the point of attachment. C20 diacid = O=C(O)CCCCCCCCCCCCCCCCCCC(=O)*; γGlu = O=C(O)[C@H](CCC(=O)[*:2])N[*:1]; Hyp = O=C(O)[C@@H]1C[C@@H](O)CN1"}
{"target": "T1, hAMY3 receptor (Homo sapiens, UniProt O60896+P30988)", "T1 sequence (P30988 25-474)": "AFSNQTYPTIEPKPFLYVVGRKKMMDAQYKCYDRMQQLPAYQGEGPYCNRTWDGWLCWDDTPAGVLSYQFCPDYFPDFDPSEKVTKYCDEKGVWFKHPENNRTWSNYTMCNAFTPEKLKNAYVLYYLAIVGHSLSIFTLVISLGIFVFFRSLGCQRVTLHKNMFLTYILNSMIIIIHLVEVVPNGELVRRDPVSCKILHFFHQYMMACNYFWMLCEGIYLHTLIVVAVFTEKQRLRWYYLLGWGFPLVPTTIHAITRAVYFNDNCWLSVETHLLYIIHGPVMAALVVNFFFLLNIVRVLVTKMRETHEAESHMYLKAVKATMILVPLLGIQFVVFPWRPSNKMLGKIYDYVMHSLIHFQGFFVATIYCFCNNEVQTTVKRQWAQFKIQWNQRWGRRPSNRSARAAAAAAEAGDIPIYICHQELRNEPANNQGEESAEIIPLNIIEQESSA", "T1 sequence (O60896 24-148 partner)": "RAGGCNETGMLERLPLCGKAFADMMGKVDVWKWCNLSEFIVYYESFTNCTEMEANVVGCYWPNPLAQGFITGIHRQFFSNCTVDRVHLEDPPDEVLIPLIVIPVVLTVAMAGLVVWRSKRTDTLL", "assay": "cAMP assay for in vitro receptor activation, hAMY3-R", "type": "cell-based", "conditions": "cAMP assay, hAMY3 receptor; read-out: hAMY3R EC50", "description": "General Protocols for cAMP Assays for Measuring In Vitro Receptor Activation\nCells stably overexpressing the hAMY3 receptor were obtained from Ogeda (now Astellas Pharma), sub-cloned and a monoclonal cell-line with an appropriate assay-window was expanded, aliquoted and frozen.\nAn aliquot was thawed and plated in DPBS with 0.05% casein and 0.5 mM IBMX as 2000 cells/well in a 384-well format. The cells were then immediately stimulated for 30 min at room temperature with graded doses of test compound using human amylin (Bachem, cat no. H-7905) as a positive control. cAMP accumulation was measured using a Cisbio assay for Gs coupled receptors (cat. no. 62AM4PEC), where the assay reagents were added as per the manufacturer's instructions and time-resolved fluorescence energy transfer recorded after one hour.", "units": {"EC50": "nM"}}
{"smiles": "CC[C@H](C)[C@H](NC(=O)[C@H](CCC(N)=O)NC(=O)[C@H](Cc1c[nH]cn1)NC(=O)[C@H](C)NC(=O)[C@H](CC(C)C)NC(=O)[C@H](CCCNC(=N)N)NC(=O)[C@H](CCC(N)=O)NC(=O)[C@@H](NC(=O)[C@@H](NC(=O)[C@@H]1CSSC[C@H](NC(=O)[C@@H](N)CCCCN)C(=O)N[C@@H](CC(N)=O)C(=O)N[C@@H](Cc2ccccc2)C(=O)N[C@@H](C)C(=O)N[C@@H]([C@@H](C)O)C(=O)N1)[C@@H](C)O)C(C)C)C(=O)N[C@@H](Cc1ccc(O)cc1)C(=O)N[C@@H](CCC(N)=O)C(=O)N[C@@H](Cc1ccccc1)C(=O)N[C@H](C(=O)N[C@@H](CC(=O)O)C(=O)N[C@@H](CCCCN)C(=O)N[C@@H](CC(=O)O)C(=O)N[C@@H](CCCCN)C(=O)N[C@@H](CC(=O)O)C(=O)N[C@@H](CC(N)=O)C(=O)N[C@H](C(=O)N[C@@H](C)C(=O)N1CCC[C@H]1C(=O)N1CCC[C@H]1C(=O)N[C@H](C(=O)N[C@@H](CCC(=O)O)C(=O)N[C@H](C(=O)NCC(=O)N[C@@H](CO)C(=O)N[C@@H](CC(N)=O)C(=O)NCC(=O)N1CCC[C@H]1C(N)=O)C(C)C)[C@@H](C)O)C(C)C)[C@@H](C)O", "note": "[compound 18] (H-KCNFATCTVQRLAHQIYQFTDKDKDNVAPPTEVGSNGP-NH2; disulfide 2-7)", "EC50": 0.008}
{"smiles": "CC(C)C[C@H](NC(=O)[C@H](CCCNC(=N)N)NC(=O)[C@H](CCC(N)=O)NC(=O)[C@@H](NC(=O)[C@@H](NC(=O)[C@@H]1CSSC[C@H](NC(=O)CNC(=O)CC[C@H](NC(=O)CCCCCCCCCCCCCCCCCCC(=O)O)C(=O)O)C(=O)N[C@@H](CCCNC(=N)N)C(=O)N[C@@H](Cc2ccccc2)C(=O)NCC(=O)N[C@@H]([C@@H](C)O)C(=O)N1)[C@@H](C)O)C(C)C)C(=O)N[C@@H](C)C(=O)N[C@@H](Cc1c[nH]cn1)C(=O)N[C@@H](Cc1ccccc1)C(=O)N[C@@H](CC(C)C)C(=O)N[C@@H](Cc1ccc(O)cc1)C(=O)N[C@@H](CCC(N)=O)C(=O)N[C@@H](Cc1ccccc1)C(=O)N[C@H](C(=O)N[C@@H](CC(=O)O)C(=O)N[C@@H](CCCCN)C(=O)N[C@@H](CC(=O)O)C(=O)N[C@@H](CCCCN)C(=O)N[C@@H](CC(=O)O)C(=O)N[C@@H](CC(N)=O)C(=O)N[C@H](C(=O)N[C@@H](C)C(=O)N1CCC[C@H]1C(=O)N[C@@H](CCCNC(=N)N)C(=O)N[C@H](C(=O)N[C@@H](CCCCN)C(=O)N[C@H](C(=O)NCC(=O)N[C@@H](CO)C(=O)N[C@@H](CC(N)=O)C(=O)NCC(=O)N[C@@H](Cc1ccc(O)cc1)C(N)=O)C(C)C)[C@@H](C)O)C(C)C)[C@@H](C)O", "note": "[compound 223] ({C20 diacid-γGlu}-GCRFGTCTVQRLAHFLYQFTDKDKDNVAPRTKVGSNGY-NH2; disulfide 2-7)", "EC50": 0.186}
{"smiles": "CC[C@H](C)[C@H](NC(=O)[C@H](CCC(N)=O)NC(=O)[C@H](Cc1c[nH]cn1)NC(=O)[C@H](C)NC(=O)[C@H](CC(C)C)NC(=O)[C@H](CCCNC(=N)N)NC(=O)[C@H](CCC(N)=O)NC(=O)[C@@H](NC(=O)[C@@H](NC(=O)[C@@H]1CSSC[C@H](NC(=O)[C@H](CCCCN)NC(=O)CC[C@H](NC(=O)CCCCCCCCCCCCCCCCCCC(=O)O)C(=O)O)C(=O)N[C@@H](CC(N)=O)C(=O)N[C@@H]([C@@H](C)O)C(=O)N[C@@H](C)C(=O)N[C@@H]([C@@H](C)O)C(=O)N1)[C@@H](C)O)C(C)C)C(=O)N[C@@H](Cc1ccc(O)cc1)C(=O)N[C@@H](CCC(N)=O)C(=O)N[C@@H](Cc1ccccc1)C(=O)N[C@H](C(=O)N[C@@H](CC(=O)O)C(=O)N[C@@H](CCCCN)C(=O)N[C@@H](CC(N)=O)C(=O)N[C@@H](CCCCN)C(=O)N[C@@H](CC(=O)O)C(=O)N[C@@H](CC(N)=O)C(=O)N[C@H](C(=O)N[C@@H](C)C(=O)N1CCC[C@H]1C(=O)N1CCC[C@H]1C(=O)N[C@H](C(=O)N[C@@H](CC(N)=O)C(=O)N[C@H](C(=O)NCC(=O)N[C@@H](CO)C(=O)N[C@@H](CC(N)=O)C(=O)NCC(=O)N1C[C@H](O)C[C@H]1C(N)=O)C(C)C)[C@@H](C)O)C(C)C)[C@@H](C)O", "note": "[compound 91] ({C20 diacid-γGlu}-KCNTATCTVQRLAHQIYQFTDKNKDNVAPPTNVGSNG[Hyp]-NH2; disulfide 2-7)", "EC50": 0.016}
{"smiles": "CC[C@H](C)[C@H](NC(=O)[C@H](CCC(N)=O)NC(=O)[C@H](Cc1c[nH]cn1)NC(=O)[C@H](C)NC(=O)[C@H](CC(C)C)NC(=O)[C@H](CCCNC(=N)N)NC(=O)[C@H](CCC(N)=O)NC(=O)[C@@H](NC(=O)[C@@H](NC(=O)[C@@H]1CSSC[C@H](NC(=O)[C@H](CCCCN)NC(=O)CC[C@H](NC(=O)CCCCCCCCCCCCCCCCCCC(=O)O)C(=O)O)C(=O)N[C@@H](CC(N)=O)C(=O)N[C@@H]([C@@H](C)O)C(=O)N[C@@H](C)C(=O)N[C@@H]([C@@H](C)O)C(=O)N1)[C@@H](C)O)C(C)C)C(=O)N[C@@H](Cc1ccc(O)cc1)C(=O)N[C@@H](CCC(N)=O)C(=O)N[C@@H](Cc1ccccc1)C(=O)N[C@@H](C)C(=O)N[C@@H](CC(=O)O)C(=O)N[C@@H](CCCCN)C(=O)N[C@@H](CC(=O)O)C(=O)N[C@@H](CCCCN)C(=O)N[C@@H](CC(=O)O)C(=O)N[C@@H](CC(N)=O)C(=O)N[C@H](C(=O)N[C@@H](C)C(=O)N1CCC[C@H]1C(=O)N1CCC[C@H]1C(=O)N[C@H](C(=O)N[C@@H](CC(N)=O)C(=O)N[C@H](C(=O)NCC(=O)N[C@@H](CO)C(=O)N[C@@H](CC(N)=O)C(=O)NCC(=O)N1C[C@H](O)C[C@H]1C(N)=O)C(C)C)[C@@H](C)O)C(C)C", "note": "[compound 83] ({C20 diacid-γGlu}-KCNTATCTVQRLAHQIYQFADKDKDNVAPPTNVGSNG[Hyp]-NH2; disulfide 2-7)", "EC50": 0.015}
{"smiles": "CC[C@H](C)[C@H](NC(=O)[C@H](CC(N)=O)NC(=O)[C@H](CO)NC(=O)[C@H](CCCNC(=N)N)NC(=O)[C@@H]1CCCN1C(=O)[C@H](C)NC(=O)[C@@H](NC(=O)[C@H](CC(N)=O)NC(=O)[C@H](CC(=O)O)NC(=O)[C@H](CCCCN)NC(=O)[C@H](CC(=O)O)NC(=O)[C@H](CCCCN)NC(=O)[C@H](CC(=O)O)NC(=O)[C@@H](NC(=O)[C@H](Cc1ccccc1)NC(=O)[C@H](CCC(N)=O)NC(=O)[C@H](Cc1ccc(O)cc1)NC(=O)[C@@H](NC(=O)[C@H](CCC(N)=O)NC(=O)[C@H](Cc1c[nH]cn1)NC(=O)[C@H](C)NC(=O)[C@H](CC(C)C)NC(=O)[C@H](CCCNC(=N)N)NC(=O)[C@H](CCC(N)=O)NC(=O)[C@@H](NC(=O)[C@@H](NC(=O)[C@@H]1CSSC[C@H](NC(=O)CN)C(=O)N[C@@H](CCCNC(=N)N)C(=O)N[C@@H](Cc2ccccc2)C(=O)NCC(=O)N[C@@H]([C@@H](C)O)C(=O)N1)[C@@H](C)O)C(C)C)[C@@H](C)CC)[C@@H](C)O)C(C)C)C(=O)NCC(=O)N1CCC[C@H]1C(=O)N[C@@H](CCC(N)=O)C(=O)NCC(=O)N[C@@H](Cc1ccc(O)cc1)C(N)=O", "note": "[compound 382] (H-GCRFGTCTVQRLAHQIYQFTDKDKDNVAPRSNIGPQGY-NH2; disulfide 2-7)", "EC50": 0.034}
{"smiles": "CC[C@H](C)[C@H](NC(=O)[C@H](CCC(N)=O)NC(=O)[C@H](Cc1c[nH]cn1)NC(=O)[C@H](C)NC(=O)[C@H](CC(C)C)NC(=O)[C@H](CCCNC(=N)N)NC(=O)[C@H](CCC(N)=O)NC(=O)[C@@H](NC(=O)[C@@H](NC(=O)[C@@H]1CSSC[C@H](NC(=O)[C@H](CCCCN)NC(=O)CC[C@H](NC(=O)CCCCCCCCCCCCCCCCCCC(=O)O)C(=O)O)C(=O)N[C@@H](CC(N)=O)C(=O)N[C@@H](Cc2ccccc2)C(=O)N[C@@H](C)C(=O)N[C@@H]([C@@H](C)O)C(=O)N1)[C@@H](C)O)C(C)C)C(=O)N[C@@H](Cc1ccc(O)cc1)C(=O)N[C@@H](CCC(N)=O)C(=O)N[C@@H](Cc1ccccc1)C(=O)N[C@H](C(=O)N[C@@H](CC(=O)O)C(=O)N[C@@H](CCCCN)C(=O)N[C@@H](CC(=O)O)C(=O)N[C@@H](CCCCN)C(=O)N[C@@H](CC(=O)O)C(=O)N[C@@H](CC(N)=O)C(=O)N[C@H](C(=O)N[C@@H](C)C(=O)N1CCC[C@H]1C(=O)N1CCC[C@H]1C(=O)N[C@H](C(=O)N[C@@H](CCC(=O)O)C(=O)N[C@H](C(=O)NCC(=O)N[C@@H](CO)C(=O)N[C@@H](CC(N)=O)C(=O)NCC(=O)N1C[C@H](O)C[C@H]1C(N)=O)C(C)C)[C@@H](C)O)C(C)C)[C@@H](C)O", "note": "[compound 68] ({C20 diacid-γGlu}-KCNFATCTVQRLAHQIYQFTDKDKDNVAPPTEVGSNG[Hyp]-NH2; disulfide 2-7)", "EC50": 0.013}
